Data on nine compounds can be found in US9828375B2, “4-position substituted pyrazolopyrimidine derivative, and use thereof in drug preparation” (Guangxi Wuzhou Pharmaceuticals (Group) Co., Ltd., priority 2012, dated 2017).

Read-outs that look alike come from different tables or passages of the source.

In series [1] the test system is human pancreatic carcinoma cell line panc-1. Briefly: In vitro tumor cell proliferation inhibition (MTT): panc-1. The class given is cell-based. An excerpt:
(§1) The purpose of the experiment was to test the inhibition activity of the compounds of the invention for in vitro human tumor cell proliferation by the methyl thiazolyl tetrazolium (MTT) colorimetry.
(§2) Main reagents: RPMI-1640, fetal bovine serum, pancreatin, etc. were purchased from Gibco BRL Company (Invitrogen Corporation, USA) and IMDM medium that was purchased from American Type Culture Collection (ATCC). Methyl thiazolyl tetrazolium (MTT) and dimethyl sulfoxide (DMSO) were products from Sigma Company (USA). Pyrazolopyrimidine derivatives were composed by the inventor. During in vitro experiment, 100% DMSO was prepared into 10 mM storage solution, the solution was stored in a refrigerator at −20° C. for future use, and was diluted to the required concentration with complete culture solution before use.
(§3) Cell line and culture: Human leukemia cell line MV4-11, Jurkat, K562, human thyrophyma cell line TT, human gastric carcinoma cell line MKN-45, human malignant melanoma cell lines A375 and A875, human pancreatic carcinoma cell line panc-1, human cervical carcinoma cell line HELA, human colorectal carcinoma cell line HCT116, etc. were purchased from American type culture collection and were preserved by this laboratory. All leukemia cell lines (except MV4-11), gastric carcinoma cell lines and thyrophyma cell lines were cultured in RPMI-1640 complete medium containing 10% fetal bovine serum, 100 U/mL penicillin and 100 μg/mL streptomycin at 37° C. in 5% CO2. The remaining cell lines were cultured in DMEM complete medium containing 10% fetal bovine serum (containing 20% MV4-11 cell), 100 U/mL penicillin and 100 µg/mL streptomycin at 37° C. in 5% CO2.
(§4) Cell suspension with cell concentration of 1-2×10^4/mL was adjusted with the complete cell medium and inoculated in a 96-well plate, with each well filled with 200 μl cell suspension that was cultured overnight. On the next day, supernatant was sucked and abandoned (supernatant was sucked upon centrifugation of suspension cells), and then cells were processed with test compounds at gradient concentrations respectively. Meanwhile, a negative control group free from drug and a solvent control group with equal volume were set, and the DMSO concentration was 0.1%. Each dose group was provided with three wells and cultured at 37° C. in 5% CO2. After 72 hours, 20 μl 5 mg/mL MTT reagent was added to each well, and cultured for another 2 to 4 hours, the supernatant was abandoned; 150 μL DMSO was added to each well again, vibrated and mixed evenly for 15 minutes; the absorbance (A) values (proportional to living cell amount) were determined with a microplate reader (λ=570 nm) and averaged. […] Experiment was repeated for 3 times at least. Experimental data were expressed with means, data statistics were tested by t, and P<0.05 means that difference has a statistical significance. The cell proliferation inhibition effects of all compounds as follows are expressed by IC50 or inhibition rate.

In series [2] the test system is human colorectal carcinoma cell line HCT116. Briefly: In vitro tumor cell proliferation inhibition (MTT): HCT116. In kind it is cell-based.
Description: as §1, §2, §3, §4

Series [3] deals with human malignant melanoma cell line A875. Briefly: In vitro tumor cell proliferation inhibition (MTT): A875. In kind it is cell-based.
Description: as §1, §2, §3, §4

Series [4] deals with human leukemia cell line Jurkat. Briefly: In vitro tumor cell proliferation inhibition (MTT): Jurkat. In kind it is cell-based. The note with it: 72 hours.
Description: as §1, §2, §3, §4

The test system of series [5] is human leukemia cell line MV4-11. Briefly: In vitro tumor cell proliferation inhibition (MTT): MV4-11. The class given is cell-based.
Description: as §1, §2, §3, §4

Series [6] deals with human gastric carcinoma cell line MKN-45. Briefly: In vitro tumor cell proliferation inhibition (MTT): MKN-45. In kind it is cell-based.
Description: as §1, §2, §3, §4

Series [7] concerns human malignant melanoma cell line A375. Briefly: In vitro tumor cell proliferation inhibition (MTT): A375. The class given is cell-based.
Description: as §1, §2, §3, §4

Series [8] has as its system human thyrophyma cell line TT. Briefly: In vitro tumor cell proliferation inhibition (MTT): TT. In kind it is cell-based.
Description: as §1, §2, §3, §4

Series [9] relates to human cervical carcinoma cell line HELA. Briefly: In vitro tumor cell proliferation inhibition (MTT): HELA. In kind it is cell-based. The note with it: 72 hours.
Description: as §1, §2, §3, §4

The subject of series [10] is human leukemia cell line K562. Briefly: In vitro tumor cell proliferation inhibition (MTT): K562. The class given is cell-based.
Description: as §1, §2, §3, §4

Series [11] concerns human acute myeloid leukemia cell line MV4-11. Briefly: In vivo anti-leukemia tumor experiment, NOD-SCID mice-subcutaneous MV4-11 model, tumors more than 2000 mm^3. An excerpt:
The cell line used was human acute myeloid leukemia cell line MV4-11, with anti-leukemia drug Quizartinib (AC220) as a positive control.

The mark [12] stands for this setting: Homo sapiens, HCT-116, 72 hours.

Consider `Cn1nc(C(C)(C)C)cc1NC(=O)Nc1ccc(Oc2ncnc3[nH]ncc23)c(Cl)c1` [4a-32, 1-(4-((1H-pyrazolopyrimidine-4-yl)oxy)-3-chlorphenyl)-3-(3-tert-butyl-1-methylpyrazol-5-yl)urea], for which the IC50 in series [1] (Homo sapiens, PANC-1, 72 hours) is 3 to 10 µM; in [2] (setting [12]), < 50 µM; in series [3] (Homo sapiens, A875, 72 hours), 3 to 10 µM; in series [4] (Homo sapiens, Jurkat), 3 to 10 µM; in series [5] (Homo sapiens, MV4-11, 72 h), 1 nM; in series [6] (Homo sapiens, MKN-45, 72 hours), 3 to 10 µM. Further, the IC50 in series [7] (Homo sapiens, A-375, 72 hours) fell in the range of 3 to 10 µM.
On to `O=C(Nc1cccc(Oc2ncnc3[nH]ncc23)c1)Nc1cccc(C(F)(F)F)c1` [4a-41], for which the IC50 is < 50 µM in [8] (72 hours); < 50 µM in series [1] (72 hours); < 50 µM in series [2] (72 hours, read-out: Proliferation inhibition activity (IC50) HCT 116); < 50 µM in series [3] (72 hours); < 50 µM in [9]; < 50 µM in series [4]. Further, the IC50 in [5] (72 hours) was 7820 nM; in series [10] (72 hours), < 50 µM; in [6] (72 hours), < 50 µM; in series [7] (72 hours) it was < 50 µM.
Consider `O=C(Nc1ccc(C(F)(F)F)cc1)Nc1cccc(Oc2ncnc3[nH]ncc23)c1` [4a-43], for which the IC50 is 4.57 µM in series [8] (Homo sapiens, 72 h); < 50 µM in series [1] (Homo sapiens, PANC-1, 72 hours); < 50 µM in series [2] (setting [12]); < 50 µM in [3] (Homo sapiens, A875, 72 hours); < 50 µM in series [9] (Homo sapiens, HeLa); < 50 µM in series [4] (Homo sapiens, Jurkat). Moreover, the IC50 was < 5000 nM in [5] (Homo sapiens, MV4-11, 72 h); < 50 µM in [10] (Homo sapiens, K562, 72 hours); < 50 µM in series [6] (Homo sapiens, MKN-45, 72 hours); < 50 µM in series [7] (Homo sapiens, A-375, 72 hours).
Consider `CC(C)(C)c1cc(NC(=O)Nc2ccc(Oc3ncnc4[nH]ncc34)c(Cl)c2)no1` [4a-46, 1-(4-((1H-pyrazolopyrimidine-4-yl)oxy)-3-chlorphenyl)-3-(5-tert-butylisoxazol-3-yl)urea], for which the IC50 in series [8] (Homo sapiens, 72 h) is 1 to 3 µM; in [1] (Homo sapiens, PANC-1, 72 hours), 1 to 3 µM; in [2] (setting [12]) it was < 10 µM; in series [3] (Homo sapiens, A875, 72 hours), < 10 µM; in [9] (Homo sapiens, HeLa), < 50 µM; in [4] (Homo sapiens, Jurkat) it was 1 to 3 µM. Further, the IC50 in series [5] (Homo sapiens, MV4-11, 72 h) is 3 nM; in [10] (Homo sapiens, K562, 72 hours), 3 to 10 µM; in series [6] (Homo sapiens, MKN-45, 72 hours), < 50 µM; in series [7] (Homo sapiens, A-375, 72 hours), < 10 µM.
As for `O=C(Nc1ccc(Cl)c(C(F)(F)F)c1)Nc1ccc(Oc2ncnc3[nH]ncc23)cc1Cl` [4a-55], the IC50 in series [1] (Homo sapiens, PANC-1, 72 hours) was < 50 µM; in [2] (setting [12]) it was < 50 µM; in [4] (Homo sapiens, Jurkat), < 50 µM; in [5] (Homo sapiens, MV4-11, 72 h), 54.2 nM; in series [10] (Homo sapiens, K562, 72 hours) it was < 50 µM.
On to `CC(C)(C)c1cc(NC(=O)Nc2ccc(Oc3ncnc4[nH]ncc34)cc2)n(C(=O)O)n1` [4a-58], for which the “weight loss, rash, diarrhea and other adverse reactions during administration” value in series [11] (NOD-SCID mice, 3 and 10 mg/kg q.d. oral) is recorded as “not found”. In addition, in series [11] (daily dose of 3 mg/kg or above, oral, MV4-11 tumors more than 2000 mm^3 at start), the “in vivo tumor growth inhibition effect” value is reported as “completely inhibit tumor growth”. In addition, the IC50 in series [9] (Homo sapiens, HeLa) was < 50 µM; in series [5] (Homo sapiens, MV4-11, 72 h), 0.0146 nM.
For the compound `CC(C)(C)c1cc(NC(=O)Nc2ccc(Oc3ncnc4[nH]ncc34)c(F)c2)n(C(=O)O)n1` [4a-59], the IC50 was < 50 µM in [9] (Homo sapiens, HeLa) and 0.00984 nM in series [5] (Homo sapiens, MV4-11, 72 h).
Turning to `CN(C)CCCn1ncc2c(Oc3ccc(NC(=O)Nc4cc(C(C)(C)C)on4)cc3)ncnc21` [5a-6], the IC50 in series [8] (Homo sapiens, 72 h) is 4.13 µM; in series [9] (Homo sapiens, HeLa), < 50 µM; in [4] (Homo sapiens, Jurkat) it was < 50 µM; in series [5] (Homo sapiens, MV4-11, 72 h), 28 nM; in series [6] (Homo sapiens, MKN-45, 72 hours), < 50 µM.
As to `CC(C)n1ncc2c(Oc3ccc(NC(=O)Nc4cc(C(C)(C)C)[nH]n4)cc3)ncnc21` [5a-7, 1-(5-tert-butyl-1H-pyrazol-3-yl)-3-(4-(1-isopropyl-(1H-pyrazolopyrimidine-4-yl)oxy)phenyl)urea], the IC50 was < 50 µM in series [8] (Homo sapiens, 72 h); < 50 µM in [1] (Homo sapiens, PANC-1, 72 hours); < 50 µM in series [3] (Homo sapiens, A875, 72 hours); < 50 µM in series [4] (Homo sapiens, Jurkat); < 50 µM in series [6] (Homo sapiens, MKN-45, 72 hours); < 50 µM in [7] (Homo sapiens, A-375, 72 hours).
